Results published in patent publication US20110172296A1, “MODULATION OF TRANSFORMING GROWTH FACTOR-BETA 1 EXPRESSION” (priority 2010, published 2011).
Where “and” joins values, the source holds several entries; their conditions need not be identical. Equal values may be shown once. In the oligonucleotide strings, read from the 5' end, every base follows the letter of its sugar. An asterisk marks phosphorothioate; unmarked linkages are phosphodiester. Other units and linkages are bracketed, terminal groups are in braces. A string of capitals states the bases alone. e = 2'-O-(2-methoxyethyl) (MOE); [5mC] = 5-methylcytosine; d = 2'-deoxy (DNA)

Test system: human TGF-beta1 mRNA
Assay: Antisense inhibition of human TGF-beta1 mRNA in HuVEC cells, single 10 nM dose, Lipofectamine 2000 (Example 2)
Type: cell-based
Details: for % inhibition: 10 nM oligonucleotide, HuVEC, relative to untreated control cells; for inhibition of a TGF-beta1 mRNA: threshold lists of Oligo IDs, 10 nM
Method in brief: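 Percent inhibition relative to untreated controls, from qRT-PCR of mRNA corrected for total RNA (RIBOGREEN). Cells were exposed 4 h to 10 nM phosphorothioate 2-13-5 MOE gapmers with Lipofectamine 2000 at 5,000 cells/well. RNA was harvested after roughly 24 h recovery.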

[1] = gapmers targeted to SEQ ID NO: 1
[2] = gapmers targeted to SEQ ID NO: 2

## 414024 (antisense eG*e[5mC]*dT*d[5mC]*dG*dG*dG*d[5mC]*dT*d[5mC]*d[5mC]*dG*dG*dT*dT*e[5mC]*eT*eG*e[5mC]*eA) [compound 414024]
[1]
  % inhibition: 83%
  inhibition of a TGF-beta1 mRNA: 60% and 65% and 70% and 75% and 80%

## 413997 (antisense eA*eA*dA*dA*dG*dT*d[5mC]*dT*dT*dT*dG*d[5mC]*dG*dG*dG*eA*eG*eG*e[5mC]*e[5mC]) [compound 413997]
[1]
  % inhibition: 41%

## 414118 (antisense eA*eA*dT*dG*d[5mC]*d[5mC]*d[5mC]*dA*dA*dG*dT*d[5mC]*d[5mC]*dT*d[5mC]*eA*e[5mC]*e[5mC]*eG*eT) [compound 414118]
[2]
  % inhibition: 73%
  inhibition of a TGF-beta1 mRNA: 60% and 65% and 70%

## 413996 (antisense eA*eA*dG*dT*d[5mC]*dT*dT*dT*dG*d[5mC]*dG*dG*dG*dA*dG*eG*e[5mC]*e[5mC]*eG*eG) [compound 413996]
[1]
  % inhibition: 51%

## 414045 (antisense eA*eG*d[5mC]*d[5mC]*dA*dG*dT*dT*dT*d[5mC]*dT*dT*d[5mC]*dT*dG*e[5mC]*e[5mC]*eA*eG*eT) [compound 414045]
[2]
  % inhibition: 80%
  inhibition of a TGF-beta1 mRNA: 60% and 65% and 70% and 75% and 80%

## 414006 (antisense eT*eA*d[5mC]*d[5mC]*dA*dG*dA*dA*dG*dG*dT*dG*dG*dG*dT*eG*eG*eT*e[5mC]*eT) [compound 414006]
[1]
  % inhibition: 85%
  inhibition of a TGF-beta1 mRNA: 60% and 65% and 70% and 75% and 80% and 85%

## 414041 (antisense eA*e[5mC]*dA*dG*dA*dG*dA*dT*d[5mC]*d[5mC]*dG*d[5mC]*dA*dG*dT*e[5mC]*e[5mC]*eT*e[5mC]*eT) [compound 414041]
[1]
  % inhibition: 74%
  inhibition of a TGF-beta1 mRNA: 60% and 65% and 70%

## 414081 (antisense eG*e[5mC]*dT*dT*dG*dG*dG*dA*d[5mC]*dT*d[5mC]*dA*dG*d[5mC]*dA*eT*eT*eG*eA*e[5mC]) [compound 414081]
[2]
  % inhibition: 49%

## 413981 (antisense e[5mC]*eT*d[5mC]*d[5mC]*dG*dG*d[5mC]*dT*d[5mC]*d[5mC]*d[5mC]*dA*dG*d[5mC]*dG*eG*e[5mC]*eA*eA*e[5mC]) [compound 413981]
[1]
  % inhibition: 71%
  inhibition of a TGF-beta1 mRNA: 60% and 65% and 70%

## 414030 (antisense e[5mC]*eT*dA*dA*dG*dG*d[5mC]*dG*dA*dA*dA*dG*d[5mC]*d[5mC]*d[5mC]*eT*e[5mC]*eA*eA*eT) [compound 414030]
[1]
  % inhibition: 60%
  inhibition of a TGF-beta1 mRNA: 60%

## 414089 (antisense eA*eA*dT*dT*d[5mC]*dT*dA*dG*d[5mC]*dA*dT*dT*d[5mC]*dT*dA*eG*eA*eA*eT*e[5mC]) [compound 414089]
[2]
  % inhibition: 18%

## 414079 (antisense eG*eT*d[5mC]*dT*dT*dG*dG*dT*dT*dA*dT*d[5mC]*dA*d[5mC]*dT*eA*eT*eG*eT*e[5mC]) [compound 414079]
[2]
  % inhibition: 62%
  inhibition of a TGF-beta1 mRNA: 60%

## 413998 (antisense eG*eG*dA*dA*dA*dA*dG*dT*d[5mC]*dT*dT*dT*dG*d[5mC]*dG*eG*eG*eA*eG*eG) [compound 413998]
[1]
  % inhibition: 13%

## 414114 (antisense eT*eT*dT*d[5mC]*d[5mC]*dA*dA*dG*dA*dG*d[5mC]*d[5mC]*dA*d[5mC]*dA*eG*eA*eA*eG*e[5mC]) [compound 414114]
[2]
  % inhibition: 46%

## 414115 (antisense eT*eT*dT*dT*d[5mC]*d[5mC]*dA*dT*dA*dA*dT*dA*dA*dA*dG*eG*eA*eA*eT*eT) [compound 414115]
[2]
  % inhibition: 18%

## 414093 (antisense eA*eA*d[5mC]*dA*dT*dT*d[5mC]*d[5mC]*dA*dA*d[5mC]*dA*d[5mC]*dT*dG*eA*eG*eT*eT*e[5mC]) [compound 414093]
[2]
  % inhibition: 68%
  inhibition of a TGF-beta1 mRNA: 60% and 65%

## 414038 (antisense eA*e[5mC]*dG*dG*dG*dT*dG*dT*d[5mC]*d[5mC]*dT*dT*dA*dA*dA*eT*eA*e[5mC]*eA*eG) [compound 414038]
[1]
  % inhibition: 85%
  inhibition of a TGF-beta1 mRNA: 60% and 65% and 70% and 75% and 80% and 85%

## 414095 (antisense eA*eA*dT*dT*d[5mC]*d[5mC]*dA*dG*dT*dA*dT*dG*d[5mC]*d[5mC]*dA*eG*eT*eA*eT*eT) [compound 414095]
[2]
  % inhibition: 46%

## 413993 (antisense eT*e[5mC]*d[5mC]*d[5mC]*d[5mC]*dG*dG*d[5mC]*dG*dG*d[5mC]*dA*dA*dA*dG*eG*eG*eA*eG*eG) [compound 413993]
[1]
  % inhibition: 52%

## 414065 (antisense eA*eA*dA*dT*dG*dA*dA*dG*dG*dG*dA*dG*dG*d[5mC]*dG*eA*eT*e[5mC]*eA*eG) [compound 414065]
[2]
  % inhibition: 24%

## 414017 (antisense eA*eT*dA*dA*d[5mC]*d[5mC]*dT*dA*dG*dA*dT*dG*dG*dG*d[5mC]*eG*e[5mC]*eG*eA*eT) [compound 414017]
[1]
  % inhibition: 77%
  inhibition of a TGF-beta1 mRNA: 60% and 65% and 70% and 75%

## 414033 (antisense e[5mC]*eT*d[5mC]*d[5mC]*dA*d[5mC]*d[5mC]*dT*dT*dG*dG*dG*d[5mC]*dT*dT*eG*e[5mC]*eG*eG*e[5mC]) [compound 414033]
[1]
  % inhibition: 80%
  inhibition of a TGF-beta1 mRNA: 60% and 65% and 70% and 75% and 80%

## 414111 (antisense eT*eT*dG*dA*dA*d[5mC]*dA*dA*dG*d[5mC]*d[5mC]*dG*dT*d[5mC]*dT*eA*eG*eG*eT*eG) [compound 414111]
[2]
  % inhibition: 81%
  inhibition of a TGF-beta1 mRNA: 60% and 65% and 70% and 75% and 80%

## 414067 (antisense eT*e[5mC]*d[5mC]*dT*dA*dG*dG*dA*dT*dG*d[5mC]*dA*dA*dA*dG*eA*eG*eT*e[5mC]*eT) [compound 414067]
[2]
  % inhibition: 71%
  inhibition of a TGF-beta1 mRNA: 60% and 65% and 70%

## 413991 (antisense e[5mC]*eG*dG*d[5mC]*dG*dG*d[5mC]*dA*dA*dA*dG*dG*dG*dA*dG*eG*e[5mC]*eG*eG*eT) [compound 413991]
[1]
  % inhibition: 69%
  inhibition of a TGF-beta1 mRNA: 60% and 65%

## 414094 (antisense eT*e[5mC]*dA*dA*dG*dA*dG*dG*dT*dT*d[5mC]*dA*dA*dA*d[5mC]*eT*eG*eA*e[5mC]*eA) [compound 414094]
[2]
  % inhibition: 67%
  inhibition of a TGF-beta1 mRNA: 60% and 65%

## 413989 (antisense eG*eG*d[5mC]*dA*dA*dA*dG*dG*dG*dA*dG*dG*d[5mC]*dG*dG*eT*e[5mC]*eT*eG*eG) [compound 413989]
[1]
  % inhibition: 41%

## 413974 (antisense eG*eG*d[5mC]*dA*dA*d[5mC]*dG*dG*dA*dA*dA*dA*dG*dT*d[5mC]*eT*e[5mC]*eA*eA*eA) [compound 413974]
[1]
  % inhibition: 69%
  inhibition of a TGF-beta1 mRNA: 60% and 65%

## 414014 (antisense eG*eA*dT*dG*dG*dG*d[5mC]*dG*d[5mC]*dG*dA*dT*d[5mC]*dT*dG*eG*eT*eA*e[5mC]*e[5mC]) [compound 414014]
[1]
  % inhibition: 89%
  inhibition of a TGF-beta1 mRNA: 60% and 65% and 70% and 75% and 80% and 85%

## 414056 (antisense eT*eT*dA*dT*dA*d[5mC]*d[5mC]*d[5mC]*dG*dT*dT*dT*dA*dA*dT*eA*eG*eA*eT*eG) [compound 414056]
[2]
  % inhibition: 41%

## 413978 (antisense e[5mC]*eT*d[5mC]*d[5mC]*d[5mC]*dA*dG*d[5mC]*dG*dG*d[5mC]*dA*dA*d[5mC]*dG*eG*eA*eA*eA*eA) [compound 413978]
[1]
  % inhibition: 67%
  inhibition of a TGF-beta1 mRNA: 60% and 65%
